Legend:
[1] = test system: HEK293FT shSDHB / shFH / shCTRL cells; assay: Clonogenic survival assay, DNA damaging agents, SDHB or FH knockdown cells; type: cell-based, human; details: SDHB or FH knockdown cells compared to control shRNA
Experimental: (§1) Western Blot analyses. Western blot analysis of protein levels was conducted by loading 30 μg of whole cell lysate onto a 4-20% polyacrylamide gel. Total protein was transferred to a nitrocellulose membrane. After blocking with 5% milk, membranes were incubated with primary antibodies. Antibodies used were: Rabbit monoclonal anti-Fumarase (D9C5,Cell Signaling Technologies) 1:1000 in 5% BSA, mouse monoclonal anti-SDHB (21A11AE7, Abcam) 1:1000 in % 5 milk, mouse monoclonal anti-Vinculin (SPM227, Abcam) 1:1000 in 5% milk, rabbit polyclonal anti-Histone 3 Lysine 36 trimethyl (9050, Abcam) 1:500 in 5% BSA, anti-Histone 3 Lysine 9 trimethyl (D4W1U, Cell Signaling Technologies) 1:1000 in 5% BSA, mouse monoclonal anti-Beta Actin (60008, Protein Tech) 1:5000 5% milk, rabbit Polyclonal anti-Histone H3 (ab1791, Abcam 1:5000 5% BSA), rabbit Polyclonal anti-PAR (4336-BPC-100, Trevigen) 1:5000 5% BSA, mouse monoclonal anti-GAPDH (60004 Protein Tech) 1:5000 5% milk, mouse monoclonal anti-BRCA2 (ab1, Millipore, 1:1000 5% Milk), mouse monoclonal anti-BRCA1 (D-9, Santa Cruz, 1:200 5% milk), mouse monoclonal anti-RAD51(14B4 Novus bio, 1:1000 5% milk). Patient sample blots were reprobed. […] Doxycycline induced knockdown was monitored by western blot as well as by RFP fluorescence from the internal and dox-inducible reporter on the TRIPZ construct. […]

UOK 262 [2] = assay: Clonogenic survival assay in cell lines of renal origin; type: cell-based, human; details: FIG. 4C (BMN-673), FIG. 8J (mitomycin C)
U2OS DR-GFP cells = assay: U2OS DR-GFP HR assay; type: cell-based; details: for suppression of HR, DR-GFP assay: metabolite added to cell culture medium, 24 h (FIG. 3A)
HEK293FT cells = assay: Immunofluorescence foci assay in HEK293FT cells; type: cell-based, human; details: metabolite added to culture media (FIGS. 3E-3G)
Experimental: as §1

YUNK1 cells = assay: Immunofluorescence foci assay in YUNK1 cells; type: cell-based, human
Experimental: as §1

UOK 262 [3] = assay: Neutral comet assay in UOK 262 HLRCC cells; type: cell-based, human; details: for levels of DNA DSBs after exogenous metabolite: FH-deficient UOK 262 cells, 24 h (FIG. 3H)
UOK 268 = assay: Neutral comet assay in UOK 268 HLRCC cells; type: cell-based, human; details: for levels of DNA DSBs after exogenous metabolite: FH-deficient UOK 268 cells, 24 h (FIG. 3H)
KDM4A and KDM4B = assay: Western blot of histone trimethylation (KDM4A/B activity) in YUNK1 cells; type: cell-based, human; details: increasing doses, 24 h (FIGS. 7E-7F)
Experimental: Western Blot analyses. Western blot analysis of protein levels was conducted by loading 30 μg of whole cell lysate onto a 4-20% polyacrylamide gel. Total protein was transferred to a nitrocellulose membrane. After blocking with 5% milk, membranes were incubated with primary antibodies. Antibodies used were: Rabbit monoclonal anti-Fumarase (D9C5,Cell Signaling Technologies) 1:1000 in 5% BSA, mouse monoclonal anti-SDHB (21A11AE7, Abcam) 1:1000 in % 5 milk, mouse monoclonal anti-Vinculin (SPM227, Abcam) 1:1000 in 5% milk, rabbit polyclonal anti-Histone 3 Lysine 36 trimethyl (9050, Abcam) 1:500 in 5% BSA, anti-Histone 3 Lysine 9 trimethyl (D4W1U, Cell Signaling Technologies) 1:1000 in 5% BSA, mouse monoclonal anti-Beta Actin (60008, Protein Tech) 1:5000 5% milk, rabbit Polyclonal anti-Histone H3 (ab1791, Abcam 1:5000 5% BSA), rabbit Polyclonal anti-PAR (4336-BPC-100, Trevigen) 1:5000 5% BSA, mouse monoclonal anti-GAPDH (60004 Protein Tech) 1:5000 5% milk, mouse monoclonal anti-BRCA2 (ab1, Millipore, 1:1000 5% Milk), mouse monoclonal anti-BRCA1 (D-9, Santa Cruz, 1:200 5% milk), mouse monoclonal anti-RAD51(14B4 Novus bio, 1:1000 5% milk). Patient sample blots were reprobed. Reprobed blots were stripped with Restore Plus Stripping Buffer (Thermo Fischer) and re-blocked with 5% milk prior to reprobing. Blots were tested to ensure all residual detection reagents were removed. Dual Color Precision Plus Protein standard was used as a molecular weight standard for western blots. Cell Culture. YUNK1 cells were generated in culture from uninvolved cortical renal tissue from a patient undergoing a radical nephrectomy for kidney cancer. […] YUNK1 was immortalized with a lentiviral vector containing SV40 Large T antigen (Addgene plasmid #22298). Lentiviral production was performed using HEK293FT (ATCC) using plasmids pMDLg/pRRE, pRSV-Rev, pCMV-VSG-G (Addgene #12251, 12253, and 8454). YUNK1 cells were maintained in DMEM+10% FBS+1% Pen/Strep. HEK293FT cells (ATCC) were maintained in DMEM+10% FBS+1% Pen/Strep. After lentiviral infections with TRIPZ-shRNA or GIPZ lentiviruses, cells were maintained in DMEM+10% FBS+1% Pen/Strep+2 μg/mL Puromycin. For dox inducible shRNAs, expression was induced with 2 μg/mL doxycycline. Doxycycline induced knockdown was monitored by western blot as well as by RFP fluorescence from the internal and dox-inducible reporter on the TRIPZ construct. U2OS DR-GFP cells were maintained in DMEM+10% FBS+1% Pen/Strep. UOK 262 and UOK 268 HLRCC cells are previously described in Yang, et al., 2010, Cancer Gent. Cytogent. 196:45-55; Yang, et al., 205, Cancer Genet. 205:377-390. They were obtained courtesy of W. M. Linehan and were maintained in DMEM+10% FBS+1% Pen/Strep+1 mM Sodium-Pyruvate. NCCFH1 cells were maintained in DMEM+10% FBS+1% Pen/Strep+1 mM Sodium-Pyruvate. […]

HEK293FT and YUNK1 cells = assay: Clonogenic survival assay, PARP inhibitors, knockdown or metabolite-treated cells; type: cell-based, human

CO[C@@]12[C@H](COC(N)=O)C3=C(C(=O)C(C)=C(N)C3=O)N1C[C@@H]1N[C@@H]12 [mitomycin C]
clonogenic survival in response to DNA damaging agent [1]: substantially reduced survival
sensitivity of UOK 262 relative to FH-proficient cell lines of renal origin, clonogenic survival (UOK 262 [2]): markedly more sensitive

CCOC(=O)/C=C/C(=O)O [monoethyl-fumarate]
suppression of HR, DR-GFP assay (U2OS DR-GFP cells): sufficient to suppress HR in a dose-dependent manner

O=C(O)CCC(=O)O [succinate]
suppression of HR, DR-GFP assay (U2OS DR-GFP cells): sufficient to suppress HR in a dose-dependent manner
p53BP1 foci (HEK293FT cells): Increases
γH2AX foci (HEK293FT cells): Increases
γH2AX foci (YUNK1 cells; 24 h (FIGS. 6I-6J)): Increases
p53BP1 foci (YUNK1 cells; 24 h (FIGS. 6K-6L)): Increases
levels of DNA DSBs after exogenous metabolite (UOK 262 [3]): no further effect
levels of DNA DSBs after exogenous metabolite (UOK 268): no further effect
H3K9me3 levels (KDM4A and KDM4B): dose-dependent increase
H3L36me3 levels (KDM4A and KDM4B): dose-dependent increase
induction of sensitivity to PARP inhibitors olaparib and BMN-673 by exogenous metabolite (HEK293FT and YUNK1 cells; metabolite added to culture media (2 mM succinate; 30 or 60 μM dimethyl-fumarate)): induced dramatic sensitivity

N.N.[Cl][Pt][Cl] [cisplatin]
clonogenic survival in response to DNA damaging agent [1]: substantially reduced survival

O=C(O)/C=C/C(=O)O [fumarate]
levels of DNA DSBs after exogenous metabolite (UOK 262 [3]): no further effect
levels of DNA DSBs after exogenous metabolite (UOK 268): no further effect
H3K9me3 levels (KDM4A and KDM4B): dose-dependent increase
H3L36me3 levels (KDM4A and KDM4B): dose-dependent increase

COC(=O)CCC(=O)C(=O)OC [αKG, dimethyl-α-ketoglutarate]
rescue of HR defect induced by succinate or fumarate, DR-GFP assay (U2OS DR-GFP cells; co-treatment with dimethyl-succinate or dimethyl-fumarate (FIG. 3L)): rescued
rescue of elevated DSB phenotype (comet assay) (UOK 262 [3]; FH deficient UOK 262 cells, 2 mM dimethyl-α-ketoglutarate (FIG. 3J)): rescued the phenotype
rescue of elevated DSB phenotype (comet assay) (UOK 268; FH deficient UOK 268 cells, 2 mM dimethyl-α-ketoglutarate (FIG. 3J)): rescued the phenotype

CCOC(=O)CCC(=O)O [monoethyl-succinate]
suppression of HR, DR-GFP assay (U2OS DR-GFP cells): sufficient to suppress HR in a dose-dependent manner

COC(=O)CCC(=O)OC [dimethyl-succinate]
suppression of HR, DR-GFP assay (U2OS DR-GFP cells): sufficient to suppress HR in a dose-dependent manner

O=C(c1cc(Cc2n[nH]c(=O)c3ccccc23)ccc1F)N1CCN(C(=O)C2CC2)CC1 [olaparib]
sensitivity to the PARP inhibitor, clonogenic survival (HEK293FT and YUNK1 cells; knockdown of SDHB and FH or exogenous dimethyl-fumarate or succinate (FIGS. 4A-4B, 8E-8I)): dramatic sensitivity
